Test results published in patent publication US20200297749A1, “Methods and Pharmaceutical Composition for Modulation Polarization and Activation of Macrophages” (priority 2015, published 2020).
Residues, ends and D or L forms follow the SMILES beside them. *: point of attachment. Cbz = O=C(OCc1ccccc1)*

What was measured:
[1] = tested on: PMA-treated THP-1 macrophages stimulated with lipopolysaccharide and ATP (LPS+ATP); experiment: IL-1β secretion by LPS+ATP-stimulated PMA-treated THP-1 macrophages (ELISA); format: cell-based, Human; conditions: for IL-1β secretion: after stimulation with LPS+ATP; for exacerbated IL-1β secretion of P2Y2-inhibited THP-1 macrophages: LPS+ATP stimulation, added 18 hours before; for IL-10 secretion: PMA-treated THP-1 macrophages, LPS+ATP, drug 100 μM during stimulation, FIG. 1a
Protocol: (§1) Human THP-1 cells were cultured in RPMI 1640 media, supplemented with 10% FBS. THP-1 cells were differentiated by treatment for 3 hours with 100 nM phorbol-12-myristate-13-acetate (PMA, Invivogen). After 2 days THP-1 cells were stimulated first 3 hours with ultrapure LPS from E. coli (10 ng/ml, LPS) and then stimulated for 6 hours with ATP (5 mM, Sigma). Supernatants were used for cytokine assays and cell lysates for western blot analysis. Kaempferol (100 μM, Sigma), OxATP (100 μM, Sigma), Suramine (100 μM, Sigma), or Bafilomycine A1 ([…], TOCRIS) were added during LPS+ATP stimulation, while, PP1 (20 μM, Sigma), PP2 (20 μM, Sigma). MnTBAP (10 μM, Sigma) and NAC (100 μM, Sigma) 18 hours before LPS+ATP stimulations. Commercially available ELISA kits for […] (Ebioscience), IL-10 (BD) or LDH (Roche) were used according to the manufacturers' instructions.

[2] = tested on: R5-tropic HIV-1BaL; experiment: HIV-1BaL replication in human MDMs (p24 release); format: cell-based
[3] = tested on: HIV-1NL4-3; experiment: HIV-1 permissiveness of THP-1 monocytes (intracellular p24); format: cell-based; conditions: human monocytes THP-1
Protocol: (§2) Cells were washed twice with PBS and lysed in appropriated buffer (250 mM NaCl, 0.1% NP-40, 5 mM EDTA, 10 mM Na3VO4, 10 mM NaF, 5 mM DTT, 3 mM Na4P207, 1 mM EGTA, 10 mM Glycerol phosphate, 10 mM Tris-Hcl (pH=7.5) and the protease and phosphatase inhibitors (Roche)). 10-40 μg of protein extracts were run on 4-12% or 10% SDS-PAGE and transferred at 4° C. onto a nitrocellulose membrane (0.2 Micron). After incubation for 2 hours at room temperature with 5% nonfat milk or BSA (Bovine Serum Albumine) in Tris-buffered saline and 0.1% Tween 20 (TBS-Tween), membranes were incubated with primary antibody at 4° C. overnight. […] The primary antibodies against GFP (D5.1), PYK2 (5E2). PYK2Y402*, SRC (36D10), SRCY416*, AMPKα (F6), AMPKT172* (40H9) and LC3A/B were obtained from Cell Signaling. Primary antibodies against IL-1β, CASP1, ASC (TMS1), IRF5, PNX1, Actin and GAPDH were purchased from Abcam. The primary antibodies anti-CAp24 (42-50) and anti-gp120 (2G12) were from NIH (AIDS Research and Reference Reagent Program, Division of AIDS, NIAID). Antibody anti-NLRP3 was from Adipogen (Cryo-2), anti-P2Y2 was from Alomone, anti-ubiquitin (P4D1) was from Santa-Cruz, anti-TOM20 and anti-Flag were from Sigma. […]

[4] = tested on: NLRP3; experiment: NLRP3 ubiquitinylation/degradation in HIV-1NL4-3-infected THP-1 monocytes; format: cell-based, human; conditions: THP-1, HIV-1NL4-3 infection
Protocol: as §2

[5] = tested on: NLRP3; experiment: P2Y2-induced NLRP3 degradation in transfected 293T cells (western blot); format: cell-based; conditions: for down regulation of NLRP3 by P2Y2: 293T cells co-expressing NLRP3 and GFP-P2Y2; for NLRP3 degradation: pharmacological inhibition of SRC
Protocol: Cells were washed twice with PBS and lysed in appropriated buffer (250 mM NaCl, 0.1% NP-40, 5 mM EDTA, 10 mM Na3VO4, 10 mM NaF, 5 mM DTT, 3 mM Na4P207, 1 mM EGTA, 10 mM Glycerol phosphate, 10 mM Tris-Hcl (pH=7.5) and the protease and phosphatase inhibitors (Roche)). 10-40 μg of protein extracts were run on 4-12% or 10% SDS-PAGE and transferred at 4° C. onto a nitrocellulose membrane (0.2 Micron). After incubation for 2 hours at room temperature with 5% nonfat milk or BSA (Bovine Serum Albumine) in Tris-buffered saline and 0.1% Tween 20 (TBS-Tween), membranes were incubated with primary antibody at 4° C. overnight. […] The primary antibodies against GFP (D5.1), PYK2 (5E2). PYK2Y402*, SRC (36D10), SRCY416*, AMPKα (F6), AMPKT172* (40H9) and LC3A/B were obtained from Cell Signaling. Primary antibodies against IL-1β, CASP1, ASC (TMS1), IRF5, PNX1, Actin and GAPDH were purchased from Abcam. The primary antibodies anti-CAp24 (42-50) and anti-gp120 (2G12) were from NIH (AIDS Research and Reference Reagent Program, Division of AIDS, NIAID). Antibody anti-NLRP3 was from Adipogen (Cryo-2), anti-P2Y2 was from Alomone, anti-ubiquitin (P4D1) was from Santa-Cruz, anti-TOM20 and anti-Flag were from Sigma. For immunoprecipitations, cell pellets were lysed 6 hours after infection or 24 hours after transfection in CHAPS buffer (50 mM Tris-HCl (pH=7.5), 0.50 M NaCl and 0.1% CHAPS) containing protease and phosphatase inhibitors. Anti-NLRP3 (Origene), anti-P2Y2 (Abcam) antibodies were incubated overnight at 4° C. with the cell lysates. The complexes were precipitated by incubation with Protein G Sepharose™ 4 Fast Flow (GE Healthcare). For anti-Flag immunoprecipitations, anti-Flag® M2 affinity Gel (Sigma) were incubated for overnight at 4° C. with the cell lysates. […] Western blots shown are representative of at least of three independent experiments.

[6] = tested on: NLRP3 inflammasome; experiment: IL-1β maturation under P2Y2 inhibition; format: cell-based; conditions: P2Y2i alone
Protocol: as §2

[7] = tested on: M2 human monocyte derived macrophages (MDMs); experiment: M1 polarization assays in M2 monocyte derived macrophages; format: cell-based
Protocol: M2 MDMs that express at 100% the differentiation marker CD11b and the scavenger receptor M2 marker CD163 were then seeded (0.5×10^6/ml in macrophage medium+10% FBS), let to be attached on the plates for 2 hours at 37° C. before treatments with interferon γ (IFNγ) (1 μg/0.5×10^6 MDMs), kaempferol (100 μM) or DMSO for control cells. MDMs and supernatants were harvest for flow cytometry and confocal microscopy analysis at 24 hours post-kaempferol treatments and for cytokines IL-10 ELISA analyses at 96 hours post-kaempferol treatments. Expressions of CD163 and IRF5 were respectively determined by flow cytometry and western blot. Release of IL-1β and IL-10 was determined as indicated above by ELISA.

[8] = tested on: LPS+ATP-stimulated PMA-treated THP-1 macrophages; experiment: Fragmentation of the mitochondrial network (TOM20, Mitotracker Green fluorescence microscopy); format: cell-based, Human; conditions: TOM20 or Mitotracker Green
Protocol: For immunofluorescence, cells were fixed in 2% paraformaldehyde-PBS for 5 minutes, permeabilized in 0.3% Triton (Sigma) in PBS, and incubated with PBS-FBS 20% for 1 hour, as previously described^39. Mitochondrial fragmentation and actin polymerization were analysed respectively using Mitotracker® Green FM (20 nM, Invitrogen) and Alexa Fluor 488 Phalloidin. For immunohistochemistry, 4-μm sections were cut from the paraffin blocks of the paraformaldehyde fixed tissues from mice, Macaca fascicularis or humans. After paraffin removal, slides were subjected to antigen retrieval by microwave boiling in 1 mmol/l EDTA pH 9.0. Slides were incubated with anti-P2Y2 (Alomone), anti-NLRP3 (Abcam), anti-CD163 (BD laboratories), anti-gp120 (2G12), anti-CD40 (BD laboratories) or anti-CASP1 p10 (Santa Cruz) overnight after permeabilization in 0.3% Triton for 5 minutes and saturation in PBS-FBS 20% for 1 hour. […] Cells were analysed by fluorescent confocal microscopy on Leica SPE (using a 63× objective). […] Mice alveolar macrophages were dissociated from lung (using Lung Dissociation kit from Miltenyi Biotech) and analysed using anti-CD11b (APC-Cy7) (BD laboratories), anti-CD11c (PE-Cy7) (BioLegend), anti-CD40 (eFluo710) (BioLegend), anti-F4/80 (FITC) (ebioscience) and anti-GR-1 (PE) (ebioscience).

[9] = tested on: LPS+ATP-stimulated PMA-treated THP-1 macrophages; experiment: Quantification of ROS production (H2DCFDA, MitoSOX); format: cell-based, Human; conditions: detectable with H2DCFDA or MitoSOX
Protocol: Mitochondria-associated ROS levels were measured by staining cells with H2DCFDA at 5 μM for 1 hour or with MitoSOX at 0.25 μM for 10 minutes at 37° C. Cells were then washed twice with HBSS solution and suspended in cold HBSS solution containing 1% FBS for FACS analysis^25.

[10] = tested on: PMA-differentiated THP-1 macrophages stimulated with LPS+ATP; experiment: Viability / LDH release of LPS+ATP-stimulated THP-1 macrophages; format: cell-based, Human; conditions: in comparison with the control
Protocol: as §1

Nc1ncnc2c1ncn2[C@@H](C=O)O[C@@H](C=O)COP(=O)(O)OP(=O)(O)OP(=O)(O)O [oxidized ATP]
IL-1β secretion [1]: inhibited

O=c1nc2[nH]c(=O)[nH]c2c([O-])[nH]1.[Na+] [MSU, monosodium urate crystals]
p24 antigen release and replication of R5-tropic HIV-1BaL [2]: reduced

O=c1ccn([C@@H]2O[C@H](COP(=O)(O)OP(=O)(O)OP(=O)(O)OP(=O)(O)Oc3ccccc3)[C@@H](O)[C@H]2O)c(=O)[nH]1 [MRS2768]
IL-1β secretion [1]: impaired

O=C1C(=Cc2ccc([N+](=O)[O-])cc2)CS(=O)(=O)CC1=Cc1ccc([N+](=O)[O-])cc1 [G5]
HIV-1 permissiveness (intracellular accumulation of p24) [3]: enhanced | ubiquitinylation/degradation of NLRP3 [4]: increased | down regulation of NLRP3 by P2Y2 [5]: partially inhibited

CC(C)(C)n1nc(-c2ccc(Cl)cc2)c2c(N)ncnc21 [PP2]
NLRP3 degradation [5]: impaired

CC(=O)N[C@@H](CS)C(=O)O [N-Acetyl Cysteine]
exacerbated IL-1β secretion of P2Y2-inhibited THP-1 macrophages [1]: blunted

O=C(O)c1ccc(/C2=C3\C=CC(=N3)/C(c3ccc(C(=O)O)cc3)=c3/cc/c4[n]3[Mn]([Cl])[n]3c2ccc3/C(c2ccc(C(=O)O)cc2)=C2/C=CC(=N2)\C=4c2ccc(C(=O)O)cc2)cc1 [MnTBAP]
exacerbated IL-1β secretion of P2Y2-inhibited THP-1 macrophages [1]: blunted

CC(C)C[C@@H](C=O)NC(=O)[C@H](CC(C)C)NC(=O)[C@H](CC(C)C)NC(=O)OCc1ccccc1 [MG132] (Cbz-Leu-Leu-Leu-aldehyde)
down regulation of NLRP3 by P2Y2 [5]: fully suppressed

Cc1ccc(C(=O)Nc2ccc(S(=O)(=O)O)c3cc(S(=O)(=O)O)cc(S(=O)(=O)O)c23)cc1NC(=O)c1cccc(NC(=O)Nc2cccc(C(=O)Nc3cc(C(=O)Nc4ccc(S(=O)(=O)O)c5cc(S(=O)(=O)O)cc(S(=O)(=O)O)c45)ccc3C)c2)c1 [suramin]
IL-10 secretion [1]: increased

O=c1c(O)c(-c2ccc(O)cc2)oc2cc(O)cc(O)c12 [kaempferol]
IL-10 secretion [1]: increased | IL-1β maturation [6]: stimulation | IL-10 secretion ([7]; M2 human MDMs, kaempferol 100 μM, FIG. 1c): increased | secretion of the M2 cytokine interleukin-10 (IL-10) ([7]; MDMs, kaempferol 100 μM, 96 hours, FIG. 1e): reduced | IL-1β secretion ([7]; MDMs, kaempferol 100 μM, FIG. 1c): induction | M1 polarization ([7]; MDMs, kaempferol 100 μM, FIG. 1e): favoured the M1 polarization | membrane expressions of the M2 markers such as CD163 ([7]; flow cytometry, 24 hours post-kaempferol): diminished | expression of IFN regulatory factor 5 (IRF5) ([7]; western blot): increased | fragmentation of the mitochondrial network [8]: caused fragmentation | LPS+ATP-induced ROS production [9]: increased | viability (cell death, pyroptosis) [10]: lost their viability

Cc1ccc(-c2nn(C(C)(C)C)c3ncnc(N)c23)cc1 [PP1]
NLRP3 degradation [5]: impaired
